Legend:
Type in all cases: in vivo
[1] = tested on: barnyardgrass (Echinochloa crus-galli); test: Test A pre-/postemergence plant response
How it was run: (§1)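 Scores reflect visual plant injury relative to untreated controls on a 0–100 scale, recorded approximately 10 days after simultaneous preemergence soil spraying and postemergence spraying of one- to two-leaf seedlings grown in loam–sand.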

corn (Zea mays) = test: Test A pre-/postemergence plant response
How it was run: as §1

[2] = tested on: giant foxtail (Setaria faberi); test: Test A pre-/postemergence plant response
How it was run: as §1

[3] = tested on: large crabgrass (Digitaria sanguinalis); test: Test A pre-/postemergence plant response
How it was run: as §1

[4] = tested on: pigweed (Amaranthus retroflexus); test: Test A pre-/postemergence plant response
How it was run: as §1

[5] = tested on: wheat (Triticum aestivum); test: Test A pre-/postemergence plant response
How it was run: as §1

[6] = tested on: canarygrass (Phalaris minor); test: Test B postemergence plant response; conditions: for Plant response rating, Canarygrass: Postemergence
Procedure: (§2) At the same time, plants selected from these crop and weed species and also winter barley (Hordeum vulgare), canarygrass (Phalaris minor), chickweed (Stellaria media) and windgrass (Apera spica-venti) were treated with postemergence applications of some of the test chemicals formulated in the same manner. Plants ranged in height from 2 to 18 cm (1- to 4-leaf stage) for postemergence treatments.
(§3) Plant species in the flooded paddy test consisted of rice (Oryza sativa), umbrella sedge (Cyperus difformis), ducksalad (Heteranthera limosa) and barnyardgrass (Echinochloa crus-galli) grown to the 2-leaf stage for testing. At time of treatment, test pots were flooded to 3 cm above the soil surface, treated by application of test compounds directly to the paddy water, and then maintained at that water depth for the duration of the test. Treated plants and controls were maintained in a greenhouse for 13 to 15 days, after which time all species were compared to controls and visually evaluated. Plant response ratings, summarized in Table B, are based on a scale of 0 to 100 where 0 is no effect and 100 is complete control. A dash (-) response means no test result.

[7] = tested on: chickweed (Stellaria media); test: Test B postemergence plant response; conditions: for Plant response rating, Chickweed: Postemergence
Procedure: as §2, §3

[8] = tested on: windgrass (Apera spica-venti); test: Test B postemergence plant response; conditions: for Windgrass plant response rating: postemergence, 0-100 scale; for Plant response rating, Windgrass: Postemergence
Procedure: as §2, §3

[9] = tested on: winter barley (Hordeum vulgare); test: Test B postemergence plant response; conditions: for Plant response rating, Barley: Postemergence, scale 0 to 100, 0 no effect, 100 complete control
Procedure: as §2, §3

[10] = Postemergence, 31 g ai/ha, 0 to 100 scale, 0 no effect, 100 complete control
[11] = Postemergence, 125 g ai/ha, 0 to 100 scale, 0 no effect, 100 complete control
[12] = Preemergence, 31 g ai/ha, 0 to 100 scale, 0 is no effect, 100 is complete control
[13] = Preemergence, 125 g ai/ha, 0 to 100 scale (0 no effect, 100 complete control)
[14] = 8 g ai/ha, postemergence, 0-100 scale
[15] = 62 g ai/ha, scale 0 to 100, 0 no effect, 100 complete control

CCCc1cc(-c2ccc(Cl)cc2)nn1-c1c(O)cnn(C)c1=O [Compound 76]
Plant response rating, Barnyardgrass [1, 10]: 90 | Plant response rating, Barnyardgrass [1, 11]: 100 | Plant response rating, Barnyardgrass [1, 12]: 40 | Plant response rating, Barnyardgrass [1, 13]: 100 | Plant response rating, Corn (corn (Zea mays); [10]): 20 | Plant response rating, Corn (corn (Zea mays); [11]): 100 | Plant response rating, Corn (corn (Zea mays); [12]): 0 | Plant response rating, Corn (corn (Zea mays); [13]): 50 | Plant response rating, Foxtail, Giant [2, 10]: 70 | Plant response rating, Foxtail, Giant [2, 11]: 90 | Plant response rating, Foxtail, Giant [2, 12]: 70 | Plant response rating, Foxtail, Giant [2, 13]: 100 | Plant response rating, Crabgrass, Large [3, 10]: 20 | Plant response rating, Crabgrass, Large [3, 11]: 100 | Plant response rating, Crabgrass, Large [3, 12]: 20 | Plant response rating, Crabgrass, Large [3, 13]: 80 | Plant response rating, Pigweed [4, 10]: 0 | Plant response rating, Pigweed [4, 11]: 0 | Plant response rating, Pigweed [4, 12]: 0 | Plant response rating, Pigweed [4, 13]: 0 | Plant response rating, Wheat [5, 10]: 20 | Plant response rating, Wheat [5, 11]: 50 | Plant response rating, Wheat [5, 12]: 0 | Plant response rating, Wheat [5, 13]: 0 | Canarygrass plant response rating [6, 14]: 45 | Plant response rating, Canarygrass ([6]; 16 g ai/ha, scale 0 to 100): 60 | Plant response rating, Canarygrass ([6]; 31 g ai/ha, scale 0 to 100): 90 | Plant response rating, Canarygrass [6, 15]: 98 | Chickweed plant response rating [7, 14]: 0 | Plant response rating, Chickweed ([7]; 16 g ai/ha, scale 0 to 100): 0 | Plant response rating, Chickweed ([7]; 31 g ai/ha, scale 0 to 100): 0 | Plant response rating, Chickweed [7, 15]: 0 | Windgrass plant response rating ([8]; 8 g ai/ha): 30 | Windgrass plant response rating ([8]; 16 g ai/ha): 80 | Plant response rating, Windgrass ([8]; 31 g ai/ha, scale 0 to 100): 80 | Plant response rating, Windgrass [8, 15]: 90 | Barley plant response rating [9, 14]: 0 | Plant response rating, Barley ([9]; 16 g ai/ha): 0 | Plant response rating, Barley ([9]; 31 g ai/ha): 5 | Plant response rating, Barley ([9]; 62 g ai/ha): 25

From patent US20100267561A1, “HERBICIDAL PYRIDAZINONE DERIVATIVES” (priority 2007, published 2010)
